Data on ten compounds can be found in BindingDB's records for doi:10.7270/Q2DV1HGT (Burnham Center For Chemical Genomics, 2012).

For orientation: IC50 means the concentration that gives 50% inhibition.

The target of the experiment is T1, Tyrosine-protein phosphatase non-receptor type 5 (Homo sapiens, UniProt P54829).
T1 sequence (P54829 whole entry): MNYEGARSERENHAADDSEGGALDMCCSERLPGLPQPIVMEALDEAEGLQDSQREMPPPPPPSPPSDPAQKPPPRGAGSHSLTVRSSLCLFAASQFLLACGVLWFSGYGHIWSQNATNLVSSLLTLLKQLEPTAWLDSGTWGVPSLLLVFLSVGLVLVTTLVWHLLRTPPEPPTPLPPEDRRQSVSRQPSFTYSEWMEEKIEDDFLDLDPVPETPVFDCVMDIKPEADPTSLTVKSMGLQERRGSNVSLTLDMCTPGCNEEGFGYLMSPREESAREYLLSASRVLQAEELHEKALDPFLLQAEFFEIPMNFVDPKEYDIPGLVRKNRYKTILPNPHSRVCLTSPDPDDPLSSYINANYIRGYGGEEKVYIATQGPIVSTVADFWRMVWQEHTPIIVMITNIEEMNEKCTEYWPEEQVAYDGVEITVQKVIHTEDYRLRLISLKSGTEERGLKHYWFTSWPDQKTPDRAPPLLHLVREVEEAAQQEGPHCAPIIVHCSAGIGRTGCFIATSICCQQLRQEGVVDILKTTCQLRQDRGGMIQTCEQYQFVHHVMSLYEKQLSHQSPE
Nature of the experiment: STEP phosphatase inhibitors, confirmation, biochemical, fluorescence intensity, uHTS hits (AID 602372).

`S=C1N=C(C23CC4CC(CC(C4)C2)C3)CC(c2ccc3c(c2)OCO3)N1` (stereo not given) came in with an IC50 of 56.8 µM. In the case of `CCOc1cc(CN=Nc2nc(O)c(CC(=O)O)s2)ccc1OCc1ccc(Cl)cc1Cl` [2-[2-[(N''E)-N''-[4-(2,4-dichlorobenzyl)oxy-3-ethoxy-benzylidene]hydrazino]-4-keto-2-thiazolin-5-yl]acetic acid], half-maximal inhibition (IC50) required 4.09 µM. To `C=c1c(O)c(O)c(=C2C(=O)C(=O)C(C)C(=O)C2=O)c(O)c1O` (stereo not given) [(3E)-5-hydroxy-6-methyl-3-(2,3,5-trihydroxy-4-methyl-6-oxo-1-cyclohexa-2,4-dienylidene)cyclohex-5-ene-1,2,4-trione] belongs more than 80 µM; to `O=C1C(=O)N(CCCO)C(c2ccc(Br)cc2)C1C(=O)c1ccc(Br)cc1` (stereo not given) [(4E)-5-(4-bromophenyl)-4-[(4-bromophenyl)-oxidanyl-methylidene]-1-(3-oxidanylpropyl)pyrrolidine-2,3-dione], 36.2 µM; to `S=C1N=C2C(=C3SCCS3)CCCC2C(c2ccccc2)N1` (stereo not given) [MLS000516376], 22.6 µM. On to `CCN(CC)P(=O)(NC(=O)C(Cl)(Cl)Cl)N(CC)CC` [MLS000564159], for which the IC50 is more than 80 µM. To `CSc1ccc(CN=Nc2ccc(S(=O)(=O)Nc3ccccc3C(=O)O)cc2[N+](=O)[O-])cc1` [MLS002245633] belongs 4.12 µM.

In turn, `O=C(N/N=C/C1C=CC=CC1=O)c1cccc([N+](=O)[O-])c1` (stereo not given) [MLS002667988] gave an IC50 of 8.95 µM. Then `COc1ccc(OC)c(-n2c(O)c3o[nH]c(-c4ccccc4Cl)c-3c2=O)c1` [SMR000046218], with 24.4 µM; and `COc1ccc(CN=Nc2nc(O)c(CC(=O)O)s2)cc1OCc1ccc(Cl)cc1Cl` [[2-({3-[(2,4-dichlorobenzyl)oxy]-4-methoxybenzylidene}hydrazono)-4-oxo-1,3-thiazolidin-5-yl]acetic acid], with 9.72 µM.
